# According to paper PMC9516332 (Frontiers in Oncology, 2022):
# Like-named read-outs stand apart in the source and are kept apart here.
# What was measured:
# Experiment in all cases: Kinase panel profiling at 1 µmol/L (MSA or IMAP), percentage inhibition
# Type in all cases: biochemical
# [1] = molecular target: panel of 255 wild-type kinases (Homo sapiens, UniProt Q9P0L2); settings: read-out: %-inhibition, MARK1
# [2] = molecular target: panel of 255 wild-type kinases (Homo sapiens, UniProt Q9P289); settings: read-out: %-inhibition, MST4
# [3] = molecular target: panel of 255 wild-type kinases (Homo sapiens, UniProt P07949); settings: read-out: %-inhibition at 1 µmol/L, RET
# [4] = molecular target: panel of 255 wild-type kinases (Homo sapiens, UniProt P35968); settings: read-out: %-inhibition at 1 µmol/L, KDR
# [5] = molecular target: T1, panel of 255 wild-type kinases (Homo sapiens, UniProt O14757); settings: read-out: %-inhibition CHK1
# T1 sequence (O14757 1-476): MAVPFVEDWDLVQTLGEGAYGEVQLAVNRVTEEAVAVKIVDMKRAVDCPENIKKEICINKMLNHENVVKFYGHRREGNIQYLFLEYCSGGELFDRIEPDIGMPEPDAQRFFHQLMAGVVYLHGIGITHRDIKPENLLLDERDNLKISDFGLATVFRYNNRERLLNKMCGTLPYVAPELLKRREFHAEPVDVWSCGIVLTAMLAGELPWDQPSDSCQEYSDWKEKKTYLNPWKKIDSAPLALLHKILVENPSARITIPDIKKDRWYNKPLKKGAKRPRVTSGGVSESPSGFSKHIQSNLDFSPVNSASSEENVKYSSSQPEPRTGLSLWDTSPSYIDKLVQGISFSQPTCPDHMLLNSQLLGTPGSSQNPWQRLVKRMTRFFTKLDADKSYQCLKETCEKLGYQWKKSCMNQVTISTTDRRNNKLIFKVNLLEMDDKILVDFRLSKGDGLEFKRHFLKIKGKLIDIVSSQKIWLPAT
# [6] = molecular target: panel of 255 wild-type kinases (Homo sapiens, UniProt Q9UK32); settings: read-out: %-inhibition at 1 µmol/L, RSK4
# [7] = molecular target: T2, panel of 255 wild-type kinases (Homo sapiens, UniProt O94806); settings: read-out: %-inhibition at 1 µmol/L, PKD3
# T2 sequence (O94806 1-890): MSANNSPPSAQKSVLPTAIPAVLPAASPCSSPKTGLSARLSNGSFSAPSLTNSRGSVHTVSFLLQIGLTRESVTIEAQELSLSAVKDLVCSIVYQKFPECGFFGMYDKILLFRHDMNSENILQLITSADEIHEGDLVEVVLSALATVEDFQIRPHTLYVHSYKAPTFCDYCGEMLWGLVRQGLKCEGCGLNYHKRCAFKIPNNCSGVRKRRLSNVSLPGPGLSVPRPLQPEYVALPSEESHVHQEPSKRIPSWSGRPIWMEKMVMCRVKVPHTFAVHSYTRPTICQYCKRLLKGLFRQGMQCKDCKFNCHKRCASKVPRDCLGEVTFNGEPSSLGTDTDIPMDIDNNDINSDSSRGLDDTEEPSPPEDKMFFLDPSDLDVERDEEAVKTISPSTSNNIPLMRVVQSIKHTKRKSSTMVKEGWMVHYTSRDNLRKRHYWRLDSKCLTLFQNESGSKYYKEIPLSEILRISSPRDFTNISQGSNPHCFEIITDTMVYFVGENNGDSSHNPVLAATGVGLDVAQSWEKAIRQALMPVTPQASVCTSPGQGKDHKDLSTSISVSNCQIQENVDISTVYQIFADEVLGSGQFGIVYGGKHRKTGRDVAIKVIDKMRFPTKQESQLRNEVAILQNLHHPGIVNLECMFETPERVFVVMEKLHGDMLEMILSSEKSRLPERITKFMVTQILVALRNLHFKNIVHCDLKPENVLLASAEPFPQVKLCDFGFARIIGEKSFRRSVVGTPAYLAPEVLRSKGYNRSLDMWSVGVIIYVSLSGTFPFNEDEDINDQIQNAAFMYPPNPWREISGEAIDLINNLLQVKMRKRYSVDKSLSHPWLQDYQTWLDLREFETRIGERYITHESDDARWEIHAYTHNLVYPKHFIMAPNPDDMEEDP
# [8] = molecular target: panel of 255 wild-type kinases (Homo sapiens, UniProt P50613); settings: read-out: %-inhibition CDK7/CycH/MAT1
# [9] = molecular target: panel of 255 wild-type kinases (Homo sapiens, UniProt P19784); settings: read-out: %-inhibition at 1 µmol/L, CK2α2/β
# [10] = molecular target: panel of 255 wild-type kinases (Homo sapiens, UniProt Q9H2G2); settings: read-out: %-inhibition at 1 µmol/L, SLK
# [11] = molecular target: panel of 255 wild-type kinases (Homo sapiens, UniProt P00533); settings: read-out: %-inhibition at 1 µmol/L, EGFR
# [12] = MARK1, 1 µmol/L single concentration
# [13] = MST4, 1 µmol/L single concentration
# [14] = kinase RET, 1 µmol/L single concentration
# [15] = kinase KDR, 1 µmol/L single concentration
# [16] = CHK1 kinase assay, 1 µmol/L single concentration
# [17] = kinase RSK4, 1 µmol/L single concentration
# [18] = kinase PKD3, 1 µmol/L single concentration
# [19] = CDK7/CycH/MAT1 kinase assay, 1 µmol/L single concentration
# [20] = kinase CK2α2/β, 1 µmol/L single concentration
# [21] = kinase SLK, 1 µmol/L single concentration
# [22] = kinase EGFR, 1 µmol/L single concentration
Compound,"inhibition at 1 µM [1, 12] [%]","inhibition at 1 µM [2, 13] [%]","inhibition at 1 µM [3, 14] [%]","inhibition at 1 µM [4, 15] [%]","inhibition at 1 µM [5, 16] [%]","inhibition at 1 µM [6, 17] [%]","inhibition at 1 µM [7, 18] [%]","inhibition at 1 µM [8, 19] [%]","inhibition at 1 µM [9, 20] [%]","inhibition at 1 µM [10, 21] [%]","inhibition at 1 µM [11, 22] [%]",other results
Cc1nc(NC(=O)N2CCC[C@H]2C(N)=O)sc1-c1ccnc(C(C)(C)C(F)(F)F)c1 [alpelisib],-0.158,-12,1.62,8,11,-4,-2.46,-4,-1.53,8,2,
Cn1cc(-c2cc3c(N4CCN(c5ncc([C@@](C)(N)c6ccc(F)cc6)cn5)CC4)ncnn3c2)cn1 [avapritinib],-10,7,96,71,40,7.6,8,0.833,-1.79,36,25,
Cn1cnc2c(F)c(Nc3ccc(Br)cc3F)c(C(=O)NOCCO)cc21 [binimetinib],0.905,0.492,-6,15,9,-0.233,0.731,-5,-1.89,3.27,9,
CNC(=O)c1ccc(-c2cnc3ncc(Cc4ccc5ncccc5c4)n3n2)cc1F [capmatinib],,,,,,,,,,,,inhibition at 1 µM [1]: -5.32%; inhibition at 1 µM [2]: -2.24%; inhibition at 1 µM [3]: 11%; inhibition at 1 µM [4]: 4%; inhibition at 1 µM [5]: 0.209%; inhibition at 1 µM [6]: 8%; inhibition at 1 µM [7]: -3.34%; inhibition at 1 µM [8]: -0.376%; inhibition at 1 µM [9]: -0.77%; inhibition at 1 µM [10]: 7.55%; inhibition at 1 µM [11]: 17%
COc1cc2ncnc(Nc3ccc(F)c(Cl)c3)c2cc1NC(=O)/C=C/CN1CCCCC1 [dacomitinib],-2,12,40,42,10,16,8,3.35,1.11,78,103,
C[C@H](Nc1ncnc2nc[nH]c12)c1cc2cccc(Cl)c2c(=O)n1-c1ccccc1 [duvelisib],4.47,-3.25,8,11,5.69,-5,-3.52,-5.41,-1.47,7.44,6,
COC(=O)N[C@@H](C)CNc1nccc(-c2cn(C(C)C)nc2-c2cc(Cl)cc(NS(C)(=O)=O)c2F)n1 [encorafenib],2.71,-4.45,-10,22,14,4.58,5,-6.5,-3.75,6,9,
CN1CCN(c2ccc(C(=O)Nc3n[nH]c4ccc(Cc5cc(F)cc(F)c5)cc34)c(NC3CCOCC3)c2)CC1 [entrectinib],19,6,,,14,,3,27,2,63,,
CCc1nc(C(N)=O)c(Nc2ccc(N3CCC(N4CCN(C)CC4)CC3)c(OC)c2)nc1NC1CCOCC1 [gilteritinib],27,4.67,100,104,22,44,53,,23,99,85,inhibition at 1 µM [8]: 31%
CCN1CCN(c2ccc(Nc3cc(N(C)C(=O)Nc4c(Cl)c(OC)cc(OC)c4Cl)ncn3)cc2)CC1 [infigratinib],-9,-10,,92,-1.07,7,11,9,-2.17,16,,
O=C(Nc1cnn2ccc(N3CCC[C@@H]3c3cc(F)ccc3F)nc12)N1CC[C@H](O)C1 [larotrectinib],-6.38,1.67,1.71,6,14,-7,8,-8,-3,5.58,5,
C[C@H]1Oc2cc(cnc2N)-c2c(nn(C)c2C#N)CN(C)C(=O)c2ccc(F)cc21 [lorlatinib],11,-8,10,7,12,-2,1.46,,-2.41,90,9.49,
CCN1C(=O)N(c2c(F)c(OC)cc(OC)c2F)Cc2cnc3[nH]c(CN4CCOCC4)cc3c21 [pemigatinib],57,56,55,,12,-7,14,-12,-5,0.681,-2,inhibition at 1 µM [4]: 96%
FC(F)(F)c1ccc(CNc2ccc(Cc3c[nH]c4ncc(Cl)cc34)cn2)cn1 [pexidartinib],3,7,88,81,5.6,24,-12,22,0.601,11,,
